Assay results from patent US9834564B2, “Substituted quinolines as PDE-10 inhibitors” (priority 2010, dated 2017).
Read-outs that look alike come from different tables or passages of the source.

Columns and labels:
[1] = target: HEK293 cells over-expressing PDE-10A (Homo sapiens (Human), UniProt Q9Y233); assay: whole cell PDE-10 assay, intracellular cGMP in HEK293 cells over-expressing PDE-10A; assay type: cell-based; conditions: concentration elevating intracellular cyclic nucleotide 300% above baseline; HEK293 over-expressing PDE-10A, 30 min compound, 200 μM sodium nitroprusside 2 min
[2] = target: recombinant human PDE-10 enzyme (PDE-10A) (Homo sapiens (Human), UniProt Q9Y233); assay: IMAP PDE Fluorescence Polarization assay, human PDE-10 inhibition (enzyme assay); assay type: biochemical
Procedure: In one embodiment, the compounds provided herein were assayed for their ability to inhibit human PDE-10A. In one embodiment, the activities of the compounds were determined using the Molecular Devices IMAP PDE Fluorescence Polarization assay using recombinant human PDE-10 enzyme expressed in a baculoviral system. Briefly, 10 μL of a compound (0.2 nM-20 μM) was added to either a 96-well half area black plate or a 384-well black plate along with 10 μL of Fluorescein-labeled cAMP/cGMP substrate as per manufacturer's instructions and 10 μL of PDE enzyme (activity 0.1 U). Following a 40-minute incubation at 37° C., 60 μL of IMAP binding reagent was added. […] The data was analyzed using Prism Software (GraphPad Inc, San Diego, Calif.).

[3] = recombinant human PDE-10, fluorescein-labeled cAMP/cGMP substrate, 40 min at 37° C.

Chain of HEK293 cells over-expressing PDE-10A (Q9Y233 whole entry): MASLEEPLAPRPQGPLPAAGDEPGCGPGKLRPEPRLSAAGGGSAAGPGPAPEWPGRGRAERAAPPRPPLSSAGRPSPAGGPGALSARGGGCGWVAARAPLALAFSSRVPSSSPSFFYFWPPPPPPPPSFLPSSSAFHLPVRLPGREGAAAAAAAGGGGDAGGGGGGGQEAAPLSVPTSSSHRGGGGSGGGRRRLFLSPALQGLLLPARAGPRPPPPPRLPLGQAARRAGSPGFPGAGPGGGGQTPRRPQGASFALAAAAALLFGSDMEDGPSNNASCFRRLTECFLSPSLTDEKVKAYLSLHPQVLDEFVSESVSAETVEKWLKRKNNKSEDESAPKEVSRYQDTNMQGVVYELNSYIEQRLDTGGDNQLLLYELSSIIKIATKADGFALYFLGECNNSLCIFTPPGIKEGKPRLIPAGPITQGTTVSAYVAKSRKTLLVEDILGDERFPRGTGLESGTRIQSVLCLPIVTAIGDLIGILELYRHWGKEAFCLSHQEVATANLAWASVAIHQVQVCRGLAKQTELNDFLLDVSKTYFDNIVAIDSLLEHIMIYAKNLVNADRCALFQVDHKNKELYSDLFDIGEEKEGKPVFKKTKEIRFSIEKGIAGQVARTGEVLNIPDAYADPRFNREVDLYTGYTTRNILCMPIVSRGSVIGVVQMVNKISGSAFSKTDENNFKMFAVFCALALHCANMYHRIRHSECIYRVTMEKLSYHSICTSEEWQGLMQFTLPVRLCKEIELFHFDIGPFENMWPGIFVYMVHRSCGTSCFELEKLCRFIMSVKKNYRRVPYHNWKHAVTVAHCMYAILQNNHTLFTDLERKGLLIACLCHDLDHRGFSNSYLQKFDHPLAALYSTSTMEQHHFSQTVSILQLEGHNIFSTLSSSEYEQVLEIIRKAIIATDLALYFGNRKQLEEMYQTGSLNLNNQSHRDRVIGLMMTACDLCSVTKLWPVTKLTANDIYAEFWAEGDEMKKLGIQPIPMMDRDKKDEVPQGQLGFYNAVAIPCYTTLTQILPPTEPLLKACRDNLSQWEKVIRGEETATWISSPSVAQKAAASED
Chain of recombinant human PDE-10 enzyme (PDE-10A) (Q9Y233 whole entry): as above

SMILES | PDE-10 EC300 (μM) [1] | IC50 [2, 3] [µM] | IC50 [2] [µM]
Fc1cccc(-c2c[nH]c(CCc3cnc4ccccc4n3)n2)c1F [Compound 77] | ++++ (IC50 or EC300<0.5 μM ++++) | < 0.5 | 
c1ccc2nc(CCc3nc4ccc5ncccc5n4n3)cnc2c1 [Compound 145] | + (IC50 or EC300>10 μM +) | 0.5 to 1 | 
Cn1cc(-c2cccc(F)c2)nc1CCc1cnc2ccccc2n1 [Compound 49] | ++++ (IC50 or EC300<0.5 μM ++++) | < 0.5 | 
Fc1ccccc1-c1c[nH]c(CCc2ccc3ccccc3n2)n1 [Compound 69] | ++ (1<IC50 or EC300<10 μM ++) | < 0.5 | 
c1ccc2nc(CCc3nc(-c4ccsc4)c[nH]3)ccc2c1 [Compound 67] | ++++ (IC50 or EC300<0.5 μM ++++) | < 0.5 | 
Cn1cc(-c2ccsc2)nc1CCc1cnc2ccccc2n1 [Compound 46] | ++++ (IC50 or EC300<0.5 μM ++++) | < 0.5 | 
Cc1ccc2nc(CCc3nc4c5cccnc5ccn4c3C)ccc2n1 [Compound 202] | ++++ (IC50 or EC300<0.5 μM ++++) | < 0.5 | 
O=c1[nH]c(CCc2nc(-c3ccccc3)c[nH]2)nc2cnccc12 [Compound 4] | ++ (1<IC50 or EC300<10 μM ++) | < 0.5 | 
Cn1cc(-c2cccc(F)c2)nc1CCc1ccc2ccccc2n1 [Compound 43] | ++ (1<IC50 or EC300<10 μM ++) | < 0.5 | 
O=c1[nH]c(CCc2nc(-c3ccccc3)c[nH]2)nc2ccccc12 [Compound 3] | + (IC50 or EC300>10 μM +) | < 0.5 | 
Cn1cc(-c2ccccc2)nc1CCc1cnc2ccccc2n1 [Compound 20] | +++ (0.5<IC50 or EC300<1 μM +++) | < 0.5 | 
O=c1[nH]c(CCc2nc(-c3cccc4cccnc34)c[nH]2)nc2ccccc12 [Compound 58] | ++ (1<IC50 or EC300<10 μM ++) | 0.5 to 1 | 
O=c1[nH]c(CCc2ncc(-c3ccccc3)o2)nc2ccccc12 [Compound 110] | + (IC50 or EC300>10 μM +) | > 10 | 
O=c1[nH]c(CCc2nc(-c3ccc(F)cc3)c[nH]2)nc2ccccc12 [Compound 60] | ++ (1<IC50 or EC300<10 μM ++) | 0.5 to 1 | 
Cn1c(CCc2ccc3ccccc3n2)nc2c3ncccc3ccc21 [Compound 155] | +++ (0.5<IC50 or EC300<1 μM +++) | < 0.5 | 
c1ccc(-c2c[nH]c(CCc3ccc4ccccc4n3)n2)cc1 [Compound 11] | ++++ (IC50 or EC300<0.5 μM ++++) | < 0.5 | 
Cn1cc(-c2ccco2)nc1CCc1cnc2ccccc2n1 [Compound 45] | ++++ (IC50 or EC300<0.5 μM ++++) | < 0.5 | 
Cn1cc(-c2ccco2)nc1CCc1ccc2ccccc2n1 [Compound 39] | ++++ (IC50 or EC300<0.5 μM ++++) | < 0.5 | 
Cn1c(CCc2cnc3ccccc3n2)nc2c3c(ccc21)OCCO3 [Compound 211] | ++++ (IC50 or EC300<0.5 μM ++++) | < 0.5 | 
c1ccc(-c2c[nH]c(OCc3cnc4ccccc4n3)n2)cc1 [Compound 123] | ++ (1<IC50 or EC300<10 μM ++) | < 0.5 | 
c1ccc(-n2ccc(CCc3cnc4ccccc4n3)n2)cc1 [Compound 79] | ++ (1<IC50 or EC300<10 μM ++) | 0.5 to 1 | 
O=c1[nH]c(CCc2nc(-c3ccccc3)c[nH]2)cc2ccccc12 [Compound 34] | ++++ (IC50 or EC300<0.5 μM ++++) | < 0.5 | 
COc1nc2ccccc2nc1CCc1nc2c3cccnc3ccc2n1C [Compound 144] | ++ (1<IC50 or EC300<10 μM ++) | < 0.5 | 
Fc1cccc(-c2c[nH]c(CCc3ccc4ccccc4n3)n2)c1 [Compound 70] | ++ (1<IC50 or EC300<10 μM ++) | < 0.5 | 
c1ccc(-c2c[nH]c(CCc3cc4ccccc4cn3)n2)cc1 [Compound 36] | ++ (1<IC50 or EC300<10 μM ++) | < 0.5 | 

SMILES | PDE-10 EC300 (μM) [1] | IC50 [2, 3] [µM] | IC50 [2] [µM]
c1ccc(CCc2nc(-c3ccccc3)c[nH]2)cc1 [Compound 31] | + (IC50 or EC300>10 μM +) | 1 to 10 | 
Cc1cc(C)nc(CCc2nc3c4cccnc4ccc3n2C)n1 [Compound 193] | ++++ (IC50 or EC300<0.5 μM ++++) | < 0.5 | 
c1ccc2nc(CCc3nc(-c4ccsc4)c[nH]3)cnc2c1 [Compound 73] | ++++ (IC50 or EC300<0.5 μM ++++) | < 0.5 | 
Cn1cc(-c2ccccc2F)nc1CCc1cnc2ccccc2n1 [Compound 48] | ++++ (IC50 or EC300<0.5 μM ++++) | < 0.5 | 
c1ccc(-c2c[nH]c(COc3cnc4ccccc4n3)n2)cc1 [Compound 120] | ++ (1<IC50 or EC300<10 μM ++) | < 0.5 | 
O=c1[nH]c(CCc2nc(-c3ccncc3)c[nH]2)nc2ccccc12 [Compound 57] | + (IC50 or EC300>10 μM +) | 1 to 10 | 
O=c1[nH]c(CCc2nc(-c3ccc4c(c3)OCO4)c[nH]2)nc2ccccc12 [Compound 65] | ++ (1<IC50 or EC300<10 μM ++) | 1 to 10 | 
c1ccc2nc(CCc3nc4ccc5ncccc5n4n3)ccc2c1 [Compound 146] | ++++ (IC50 or EC300<0.5 μM ++++) | < 0.5 | 
Cn1cc(-c2ccsc2)nc1CCc1ccc2ccccc2n1 [Compound 40] | ++++ (IC50 or EC300<0.5 μM ++++) | < 0.5 | 
O=c1[nH]c(CCc2nc(-c3ccco3)c[nH]2)nc2ccccc12 [Compound 52] | ++++ (IC50 or EC300<0.5 μM ++++) | < 0.5 | 
O=c1[nH]c(CCc2nc(-c3ccccc3)c[nH]2)nc2ccncc12 [Compound 5] | +++ (0.5<IC50 or EC300<1 μM +++) | < 0.5 | 
c1ccc(-c2c[nH]c(Sc3cnc4ccccc4n3)n2)cc1 [Compound 124] | ++ (1<IC50 or EC300<10 μM ++) | < 0.5 | 
Cc1nc(CCc2nc3c4cccnc4ccc3n2C)nc(C)c1Cl [Compound 208] | ++++ (IC50 or EC300<0.5 μM ++++) | < 0.5 | 
Cn1cc(-c2cccnc2)nc1CCc1cnc2ccccc2n1 [Compound 51] | ++ (1<IC50 or EC300<10 μM ++) | < 0.5 | 
Cc1cccc(-c2c[nH]c(CCc3nc4ccccc4c(=O)[nH]3)n2)c1 [Compound 56] | ++++ (IC50 or EC300<0.5 μM ++++) | < 0.5 | 
Cn1c(CCc2ccc3ncccc3n2)nc2c3cccnc3ccc21 [Compound 204] | ++++ (IC50 or EC300<0.5 μM ++++) | < 0.5 | 
C(=C\c1nc(-c2ccccc2)c[nH]1)/c1ncc2ccccc2n1 [Compound 12] | ++ (1<IC50 or EC300<10 μM ++) |  | < 0.5
c1ccc2c(c1)ccc1[nH]c(CCc3cnc4ccccc4n3)nc12 [Compound 103] | + (IC50 or EC300>10 μM +) | < 0.5 | 
c1coc(-c2c[nH]c(CCc3cnc4ccccc4n3)n2)c1 [Compound 72] | ++++ (IC50 or EC300<0.5 μM ++++) | < 0.5 | 
Cn1cc(-c2ccccc2)nc1CCc1nc2ccccc2c(=O)[nH]1 [Compound 8] | ++++ (IC50 or EC300<0.5 μM ++++) | > 10 | 
Cc1ncc(C)n2nc(CCc3cnc4ccccc4n3)nc12 [Compound 134] | ++ (1<IC50 or EC300<10 μM ++) | < 0.5 | 
Fc1cccc(-c2c[nH]c(CCc3cnc4ccccc4n3)n2)c1 [Compound 76] | ++++ (IC50 or EC300<0.5 μM ++++) | < 0.5 | 
c1ccc(-c2c[nH]c(CCc3cnc4ccncc4n3)n2)cc1 [Compound 17] | +++ (0.5<IC50 or EC300<1 μM +++) | < 0.5 | 
O=c1[nH]c(CCc2nc(-c3ccsc3)c[nH]2)nc2ccccc12 [Compound 64] | ++++ (IC50 or EC300<0.5 μM ++++) | < 0.5 | 
Cc1ncc(C)n2nc(CCc3ccc4ccccc4n3)nc12 [Compound 125, 2-(2-(5,8-Dimethyl-[1,2,4]triazolo[1,5-a]pyrazin-2-yl)ethyl)quinoline] | ++++ (IC50 or EC300<0.5 μM ++++) | < 0.5 | 
